Assay results from US20240207292A1, “BORONIC ACID COMPOUNDS, COMPOSITIONS AND METHODS” (Trustees of Tufts College, priority 2021, published 2024).

Key:
[1] = target: recombinant human prolyl oligopeptidase (PREP) (Homo sapiens (Human), UniProt P48147); assay: In vitro assay prolyl oligopeptidase IC50 (Example 21); type: biochemical
[2] = Effect of NAM on stability of 6522/6555 with 50 mM AAPH at 60° C. for 60 mins as a function of pH; type: physicochemical; settings: 5 mM NAM and 50 mM AAPH
Method: Effect of […] N-acetyl methionine (NAM) on the stability of the compounds 6522 (6522 compound structure shown above) at 60° C. in the presence of AAPH 2,2′-azobis-(2-amidopropane)hydrochloride as a function of pH.
• Concentration: of 6522 2 mg/mL • Reaction condition: With 5 mM NAM and 50 mM AAPH, at 60° C. for 60 mins

[3] = Degradation in aqueous solution of pH about 3 during HPLC purification and lyophilization; settings: during HPLC purification and subsequent lyophilization
[4] = target: recombinant human dipeptidyl peptidase IV (DPPIV) (Homo sapiens (Human), UniProt P27487); assay: In vitro assay dipeptidyl peptidase IV IC50 (Example 21); type: biochemical
recombinant human dipeptidyl peptidase IV (DPPIV), sequence (P27487 whole entry): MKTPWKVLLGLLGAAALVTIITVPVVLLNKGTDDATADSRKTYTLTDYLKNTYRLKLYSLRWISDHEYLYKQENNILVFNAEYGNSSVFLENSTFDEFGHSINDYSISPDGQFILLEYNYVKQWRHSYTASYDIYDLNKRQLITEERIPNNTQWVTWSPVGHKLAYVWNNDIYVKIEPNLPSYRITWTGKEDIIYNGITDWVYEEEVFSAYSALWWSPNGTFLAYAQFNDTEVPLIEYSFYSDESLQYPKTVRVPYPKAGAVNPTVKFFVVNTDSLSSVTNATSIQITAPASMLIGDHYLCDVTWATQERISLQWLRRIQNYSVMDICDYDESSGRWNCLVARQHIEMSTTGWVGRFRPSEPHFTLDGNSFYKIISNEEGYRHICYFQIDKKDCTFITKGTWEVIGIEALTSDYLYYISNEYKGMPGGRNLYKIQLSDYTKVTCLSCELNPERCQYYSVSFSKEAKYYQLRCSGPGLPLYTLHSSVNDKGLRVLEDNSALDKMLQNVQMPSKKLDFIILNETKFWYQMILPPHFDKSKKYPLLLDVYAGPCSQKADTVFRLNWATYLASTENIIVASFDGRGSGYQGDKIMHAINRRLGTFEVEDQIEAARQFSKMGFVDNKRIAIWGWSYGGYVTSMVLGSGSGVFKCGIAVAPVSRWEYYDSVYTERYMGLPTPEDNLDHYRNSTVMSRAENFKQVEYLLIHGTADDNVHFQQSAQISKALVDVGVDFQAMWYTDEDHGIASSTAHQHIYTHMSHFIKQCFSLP

recombinant human FAP = recombinant human FAP (Homo sapiens (Human), UniProt Q12884); assay: In vitro enzyme IC50 assay, FAP (Example 16); type: biochemical; settings: 10 min preincubation at 25° C.; Z-Gly-Pro-AMC
recombinant human FAP, sequence (Q12884 whole entry): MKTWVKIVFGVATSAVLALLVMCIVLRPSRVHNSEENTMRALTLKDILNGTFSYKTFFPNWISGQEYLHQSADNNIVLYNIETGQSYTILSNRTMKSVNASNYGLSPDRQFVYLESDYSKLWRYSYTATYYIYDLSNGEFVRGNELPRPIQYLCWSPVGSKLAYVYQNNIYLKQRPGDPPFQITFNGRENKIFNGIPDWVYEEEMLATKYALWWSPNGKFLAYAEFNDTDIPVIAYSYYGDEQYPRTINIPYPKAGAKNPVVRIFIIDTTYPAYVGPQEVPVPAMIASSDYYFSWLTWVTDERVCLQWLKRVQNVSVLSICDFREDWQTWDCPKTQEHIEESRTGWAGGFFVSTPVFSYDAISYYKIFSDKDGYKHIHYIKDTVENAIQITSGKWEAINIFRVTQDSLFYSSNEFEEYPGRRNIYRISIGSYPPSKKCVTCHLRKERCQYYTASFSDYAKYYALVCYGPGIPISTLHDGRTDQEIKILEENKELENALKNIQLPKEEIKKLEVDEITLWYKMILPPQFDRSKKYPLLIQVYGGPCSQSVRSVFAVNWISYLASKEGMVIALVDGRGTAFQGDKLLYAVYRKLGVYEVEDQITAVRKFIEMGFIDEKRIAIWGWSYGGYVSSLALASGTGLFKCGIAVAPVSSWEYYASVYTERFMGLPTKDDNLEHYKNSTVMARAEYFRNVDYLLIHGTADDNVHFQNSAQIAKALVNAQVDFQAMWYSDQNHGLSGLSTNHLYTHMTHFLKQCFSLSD
Method: Biological Materials: For the in vitro IC50 determination assays, recombinant human DPPIV, DPP9, FAP, and PREP were purchased from R&D Systems, and DPP8 was from Biomol International. Buffer systems used were A (25 mM Tris, pH 8.0), B (50 mM Tris, pH 7.5), C (50 mM Tris, 140 mM NaCl, pH 7.5), D (25 mM Tris, 250 mM NaCl, pH 7.5), and E (20 mM Tris, 20 mM KCl, pH 7.4). […] Substrate Specificity Assay. Peptide libraries (0.21 mM) were incubated for 24 h with 1 nM FAP in buffer E at 37° C. The reaction was quenched by the addition of 1.2 N HCl. The samples were analyzed by reverse-phase HPLC-MS on a Thermo Finnigan LCQ Duo, quantifying the peaks in the resulting base peak chromatograms. Relative cleavage values were determined by comparing the postquench abundance of intact peptides to those in the initial library.
In Vitro Enzyme IC50 Assays. Enzymatic activity of DPPIV, DPP8, DPP9, FAP, and PREP was measured at 25° C. on a Molecular Devices M2e multidetection microtiter plate reader, monitoring the fluorescence at an excitation wavelength of 380 nm and an emission wavelength of 460 nm. The substrate was either H-Gly-Pro-AMC for the DPPIV, DPP8, and DPP9 assays or Z-Gly-Pro-AMC for the FAP and PREP assays. […] The final enzyme concentrations were 0.1, 0.8, 0.4, 1.2, and 0.6 nM for DPPIV, DPP8, DPP9, FAP, and PREP, respectively. […] Those prepared in pH 2.0 solution were preincubated at 25° C. for 4 h prior to dilution. Immediately prior to the commencement of the experiment, the 100 mM stocks were further diluted to 10^-3 M in the appropriate assay buffer, from which 1:10 serial dilutions were prepared. All inhibitors were tested in triplicate.

recombinant human prolyl oligopeptidase (PREP), sequence (P48147 whole entry): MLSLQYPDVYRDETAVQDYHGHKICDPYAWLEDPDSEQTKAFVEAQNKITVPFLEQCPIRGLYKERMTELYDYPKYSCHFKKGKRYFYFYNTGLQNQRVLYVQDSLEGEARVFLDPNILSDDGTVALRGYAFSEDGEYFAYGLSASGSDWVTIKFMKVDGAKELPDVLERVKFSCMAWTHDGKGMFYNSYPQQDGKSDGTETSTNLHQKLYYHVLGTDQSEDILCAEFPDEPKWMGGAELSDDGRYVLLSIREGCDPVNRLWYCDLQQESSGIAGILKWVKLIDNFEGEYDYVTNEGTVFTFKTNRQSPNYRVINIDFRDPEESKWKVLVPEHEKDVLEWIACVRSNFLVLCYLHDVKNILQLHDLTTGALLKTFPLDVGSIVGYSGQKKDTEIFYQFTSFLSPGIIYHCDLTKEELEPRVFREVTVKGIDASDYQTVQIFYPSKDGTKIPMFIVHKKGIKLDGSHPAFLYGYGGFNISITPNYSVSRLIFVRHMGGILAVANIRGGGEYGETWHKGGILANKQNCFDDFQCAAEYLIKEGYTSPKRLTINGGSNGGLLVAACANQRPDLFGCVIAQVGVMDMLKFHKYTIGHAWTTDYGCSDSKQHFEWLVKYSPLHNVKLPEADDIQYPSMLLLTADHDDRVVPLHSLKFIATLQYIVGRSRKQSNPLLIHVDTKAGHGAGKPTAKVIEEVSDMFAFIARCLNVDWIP

IC50 [1]: 870 nM
6555 Remain (%) ([2]; pH 4, 2 mg/mL): 76.2%
6555 Remain (%) ([2]; pH 5, 2 mg/mL): 70.0%
degradation in aqueous solution [3]: did not observe any sign of degradation
IC50 [4]: > 100000 nM
IC50 (recombinant human FAP): 0.7 nM
SMILES: C[C@@H](NC(=O)c1ccc(CNC(=O)CN2CCN(CC(=O)O)CCN(CC(=O)O)CCN(CC(=O)O)CC2)cc1)C(=O)N1CCC[C@H]1B(O)O [compound 6555, DOTA-aminomethyl-Bz-D-Ala-boroPro]
